Read-outs that look alike come from different tables or passages of the source.
How the values were obtained:
BV-2 cells = test: IL-1β production in BV-2 cells stimulated with TLR ligands; type: cell-based, murine; details: ligands for TLR2, TLR4, TLR7/8, TLR9
MARK1 = target: T1, MARK1 (Homo sapiens, UniProt Q9P0L2); test: Kinome profiler screen; type: biochemical; details: at 20,000 nM inhibitor; kinase activity remaining
T1 construct: purchased Millipore KinaseProfiler

PKCι = target: T2, PKCι (Homo sapiens, UniProt P41743); test: Kinome profiler screen; type: biochemical; details: at 20,000 nM inhibitor; kinase activity remaining
T2 construct: purchased Millipore KinaseProfiler

Abl(m) = target: T3, Abl(m) (Mus musculus, UniProt P00520); test: Kinome profiler screen; type: biochemical; details: at 20,000 nM inhibitor; kinase activity remaining
T3 construct: purchased Millipore KinaseProfiler

DMPK = target: T4, DMPK (Homo sapiens, UniProt Q09013); test: Kinome profiler screen; type: biochemical; details: at 20,000 nM inhibitor; kinase activity remaining
T4 construct: purchased Millipore KinaseProfiler

CDK9/cyclin T1 = target: T5, CDK9/cyclin T1 (Homo sapiens, UniProt P50750); test: Kinome profiler screen; type: biochemical; details: at 20,000 nM inhibitor; kinase activity remaining
T5 construct: purchased Millipore KinaseProfiler

PhKγ2 = target: T6, PhKγ2 (Homo sapiens, UniProt P15735); test: Kinome profiler screen; type: biochemical; details: at 20,000 nM inhibitor; kinase activity remaining
T6 construct: purchased Millipore KinaseProfiler

Ret (V804L) = target: T7, Ret (V804L) (Homo sapiens, UniProt P07949, V804L); test: Kinome profiler screen; type: biochemical; details: at 20,000 nM inhibitor; kinase activity remaining
T7 construct: purchased Millipore KinaseProfiler

PKCδ = target: T8, PKCδ (Homo sapiens, UniProt Q05655); test: Kinome profiler screen; type: biochemical; details: at 20,000 nM inhibitor; kinase activity remaining
T8 construct: purchased Millipore KinaseProfiler

EGFR = target: T9, EGFR (Homo sapiens, UniProt P00533); test: Kinome profiler screen; type: biochemical; details: at 20,000 nM inhibitor; kinase activity remaining
T9 construct: purchased Millipore KinaseProfiler

PI3K-C2α = target: T10, PI3K-C2α (Homo sapiens, UniProt O00443); test: Kinome profiler screen; type: biochemical; details: for activity at 20 µM: at 20,000 nM inhibitor, kinase activity remaining
T10 construct: purchased Millipore

reference memory = test: 2-day radial arm water maze (RAWM), Aβ42-infused mice; type: in vivo, C57BL/6J mice; details: 5 mg/Kg i.p.
Arg = target: T11, Arg (Homo sapiens, UniProt P42684); test: Kinome profiler screen; type: biochemical; details: at 20,000 nM inhibitor; kinase activity remaining
T11 construct: purchased Millipore KinaseProfiler

EGFR(L858R) = target: T12, EGFR(L858R) (Homo sapiens, UniProt P00533, L858R); test: Kinome profiler screen; type: biochemical; details: at 20,000 nM inhibitor; kinase activity remaining
T12 construct: purchased Millipore KinaseProfiler

VRK2 = target: T13, VRK2 (Homo sapiens, UniProt Q86Y07); test: Kinome profiler screen; type: biochemical; details: at 20,000 nM inhibitor; kinase activity remaining
T13 construct: purchased Millipore KinaseProfiler

[1] = tested on: visual, motor and motivation deficits; test: Visible platform test; type: in vivo, C57BL/6J mice; details: control test
[2] = tested on: contextual and cued learning; test: Fear conditioning, Aβ42-infused mice; type: in vivo, C57BL/6J mice; details: for cued learning: 24 hrs after contextual learning, control test; for contextual fear memory deficit: Aβ42-infused mice
Flt3 = target: T14, Flt3 (Homo sapiens, UniProt P36888); test: Kinome profiler screen; type: biochemical; details: at 20,000 nM inhibitor; kinase activity remaining
T14 construct: purchased Millipore KinaseProfiler

NEK7 = target: T15, NEK7 (Homo sapiens, UniProt Q8TDX7); test: Kinome profiler screen; type: biochemical; details: at 20,000 nM inhibitor; kinase activity remaining
T15 construct: purchased Millipore KinaseProfiler

TAO1 = target: T16, TAO1 (Homo sapiens, UniProt Q7L7X3); test: Kinome profiler screen; type: biochemical; details: at 20,000 nM inhibitor; kinase activity remaining
T16 construct: purchased Millipore KinaseProfiler

DDR2 = target: T17, DDR2 (Homo sapiens, UniProt Q16832); test: Kinome profiler screen; type: biochemical
T17 construct: purchased Millipore
T17 sequence (Q16832 22-855): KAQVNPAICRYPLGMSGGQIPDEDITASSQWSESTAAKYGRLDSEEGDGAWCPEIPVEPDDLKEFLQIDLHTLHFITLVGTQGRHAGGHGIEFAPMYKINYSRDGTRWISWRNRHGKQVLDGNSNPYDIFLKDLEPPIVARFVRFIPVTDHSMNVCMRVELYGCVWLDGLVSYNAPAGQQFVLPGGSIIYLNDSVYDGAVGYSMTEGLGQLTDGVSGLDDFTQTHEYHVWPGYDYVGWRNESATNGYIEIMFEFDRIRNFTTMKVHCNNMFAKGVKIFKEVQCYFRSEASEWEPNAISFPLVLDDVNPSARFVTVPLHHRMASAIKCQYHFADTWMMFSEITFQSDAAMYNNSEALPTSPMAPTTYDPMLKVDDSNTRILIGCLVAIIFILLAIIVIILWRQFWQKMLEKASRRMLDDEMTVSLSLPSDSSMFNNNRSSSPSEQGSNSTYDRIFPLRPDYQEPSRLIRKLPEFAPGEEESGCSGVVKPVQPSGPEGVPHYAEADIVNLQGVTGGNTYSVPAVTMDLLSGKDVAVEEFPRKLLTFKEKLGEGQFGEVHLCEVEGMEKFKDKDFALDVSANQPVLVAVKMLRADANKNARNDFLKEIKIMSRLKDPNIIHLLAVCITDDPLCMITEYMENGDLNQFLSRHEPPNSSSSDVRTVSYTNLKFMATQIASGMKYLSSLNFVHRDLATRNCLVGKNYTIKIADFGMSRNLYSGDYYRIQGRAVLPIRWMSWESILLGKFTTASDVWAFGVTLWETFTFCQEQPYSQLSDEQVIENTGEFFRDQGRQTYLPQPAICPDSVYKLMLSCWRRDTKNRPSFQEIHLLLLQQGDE

CDK3/cyclinE = target: T18, CDK3/cyclinE (Homo sapiens, UniProt Q00526); test: Kinome profiler screen; type: biochemical; details: at 20,000 nM inhibitor; kinase activity remaining
T18 construct: purchased Millipore KinaseProfiler

Syk = target: T19, Syk (Homo sapiens, UniProt P43405); test: Kinome profiler screen; type: biochemical; details: at 20,000 nM inhibitor; kinase activity remaining
T19 construct: purchased Millipore KinaseProfiler

NLK = target: T20, NLK (Homo sapiens, UniProt Q9UBE8); test: biochemical
T20 sequence (Q9UBE8 1-527): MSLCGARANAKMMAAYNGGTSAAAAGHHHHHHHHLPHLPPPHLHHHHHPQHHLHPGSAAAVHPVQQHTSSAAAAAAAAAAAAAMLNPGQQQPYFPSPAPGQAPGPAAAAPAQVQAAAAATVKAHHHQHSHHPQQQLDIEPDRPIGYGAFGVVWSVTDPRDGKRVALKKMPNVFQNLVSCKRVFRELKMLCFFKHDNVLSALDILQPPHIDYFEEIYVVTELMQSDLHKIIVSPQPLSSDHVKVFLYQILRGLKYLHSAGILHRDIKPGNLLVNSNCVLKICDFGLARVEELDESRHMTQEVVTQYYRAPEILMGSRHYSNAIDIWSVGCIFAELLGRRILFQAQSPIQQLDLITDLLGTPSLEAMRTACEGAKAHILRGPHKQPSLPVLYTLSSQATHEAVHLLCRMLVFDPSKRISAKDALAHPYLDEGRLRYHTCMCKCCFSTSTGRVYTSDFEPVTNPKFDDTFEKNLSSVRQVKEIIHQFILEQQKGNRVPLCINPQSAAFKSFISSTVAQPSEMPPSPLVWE

MELK = target: T21, MELK (Homo sapiens, UniProt Q14680); test: Kinome profiler screen; type: biochemical; details: at 20,000 nM inhibitor; kinase activity remaining
T21 construct: purchased Millipore KinaseProfiler

T10 sequence (O00443 whole entry): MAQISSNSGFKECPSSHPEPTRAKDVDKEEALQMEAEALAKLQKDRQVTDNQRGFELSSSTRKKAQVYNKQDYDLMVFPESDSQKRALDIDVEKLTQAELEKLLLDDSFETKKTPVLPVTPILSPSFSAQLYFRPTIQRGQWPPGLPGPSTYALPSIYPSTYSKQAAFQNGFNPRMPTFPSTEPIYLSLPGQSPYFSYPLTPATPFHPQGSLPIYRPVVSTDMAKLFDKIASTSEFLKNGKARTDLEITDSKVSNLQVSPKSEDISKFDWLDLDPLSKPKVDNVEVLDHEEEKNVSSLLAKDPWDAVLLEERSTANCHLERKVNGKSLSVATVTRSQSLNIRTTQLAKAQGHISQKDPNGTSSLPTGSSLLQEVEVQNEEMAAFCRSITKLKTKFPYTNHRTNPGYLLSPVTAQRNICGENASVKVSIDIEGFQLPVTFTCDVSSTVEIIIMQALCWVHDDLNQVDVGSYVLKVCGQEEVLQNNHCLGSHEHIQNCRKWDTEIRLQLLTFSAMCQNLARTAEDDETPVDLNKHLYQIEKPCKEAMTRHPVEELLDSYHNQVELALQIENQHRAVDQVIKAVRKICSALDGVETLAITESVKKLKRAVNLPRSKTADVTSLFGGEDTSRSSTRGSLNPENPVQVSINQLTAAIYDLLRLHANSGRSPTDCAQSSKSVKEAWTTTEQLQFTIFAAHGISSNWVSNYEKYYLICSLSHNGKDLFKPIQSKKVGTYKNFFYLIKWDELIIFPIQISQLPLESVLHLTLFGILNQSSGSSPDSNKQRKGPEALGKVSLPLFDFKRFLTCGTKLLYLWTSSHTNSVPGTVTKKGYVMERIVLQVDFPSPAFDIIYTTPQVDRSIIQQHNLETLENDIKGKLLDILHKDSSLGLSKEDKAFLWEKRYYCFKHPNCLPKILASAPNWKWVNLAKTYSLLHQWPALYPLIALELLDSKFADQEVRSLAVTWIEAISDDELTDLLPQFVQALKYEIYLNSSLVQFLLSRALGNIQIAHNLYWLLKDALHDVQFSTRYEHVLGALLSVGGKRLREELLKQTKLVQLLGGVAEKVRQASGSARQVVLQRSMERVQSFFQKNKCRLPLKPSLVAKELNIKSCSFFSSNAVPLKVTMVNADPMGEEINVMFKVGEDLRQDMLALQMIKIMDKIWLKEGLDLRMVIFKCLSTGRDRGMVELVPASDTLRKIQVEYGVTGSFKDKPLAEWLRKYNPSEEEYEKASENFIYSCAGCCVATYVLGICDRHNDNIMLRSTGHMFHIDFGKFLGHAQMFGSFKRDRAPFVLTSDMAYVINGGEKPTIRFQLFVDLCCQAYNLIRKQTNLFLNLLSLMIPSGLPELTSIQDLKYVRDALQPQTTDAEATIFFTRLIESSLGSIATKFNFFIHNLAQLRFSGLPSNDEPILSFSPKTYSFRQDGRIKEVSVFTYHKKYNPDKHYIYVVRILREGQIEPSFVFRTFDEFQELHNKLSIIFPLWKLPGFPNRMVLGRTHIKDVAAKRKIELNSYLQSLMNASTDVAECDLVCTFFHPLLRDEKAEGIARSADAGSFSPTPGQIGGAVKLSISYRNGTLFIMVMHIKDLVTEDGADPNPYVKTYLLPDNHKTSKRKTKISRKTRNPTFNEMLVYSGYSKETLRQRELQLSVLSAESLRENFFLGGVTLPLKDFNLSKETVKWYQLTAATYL
T7 sequence (P07949 29-1114 V804L): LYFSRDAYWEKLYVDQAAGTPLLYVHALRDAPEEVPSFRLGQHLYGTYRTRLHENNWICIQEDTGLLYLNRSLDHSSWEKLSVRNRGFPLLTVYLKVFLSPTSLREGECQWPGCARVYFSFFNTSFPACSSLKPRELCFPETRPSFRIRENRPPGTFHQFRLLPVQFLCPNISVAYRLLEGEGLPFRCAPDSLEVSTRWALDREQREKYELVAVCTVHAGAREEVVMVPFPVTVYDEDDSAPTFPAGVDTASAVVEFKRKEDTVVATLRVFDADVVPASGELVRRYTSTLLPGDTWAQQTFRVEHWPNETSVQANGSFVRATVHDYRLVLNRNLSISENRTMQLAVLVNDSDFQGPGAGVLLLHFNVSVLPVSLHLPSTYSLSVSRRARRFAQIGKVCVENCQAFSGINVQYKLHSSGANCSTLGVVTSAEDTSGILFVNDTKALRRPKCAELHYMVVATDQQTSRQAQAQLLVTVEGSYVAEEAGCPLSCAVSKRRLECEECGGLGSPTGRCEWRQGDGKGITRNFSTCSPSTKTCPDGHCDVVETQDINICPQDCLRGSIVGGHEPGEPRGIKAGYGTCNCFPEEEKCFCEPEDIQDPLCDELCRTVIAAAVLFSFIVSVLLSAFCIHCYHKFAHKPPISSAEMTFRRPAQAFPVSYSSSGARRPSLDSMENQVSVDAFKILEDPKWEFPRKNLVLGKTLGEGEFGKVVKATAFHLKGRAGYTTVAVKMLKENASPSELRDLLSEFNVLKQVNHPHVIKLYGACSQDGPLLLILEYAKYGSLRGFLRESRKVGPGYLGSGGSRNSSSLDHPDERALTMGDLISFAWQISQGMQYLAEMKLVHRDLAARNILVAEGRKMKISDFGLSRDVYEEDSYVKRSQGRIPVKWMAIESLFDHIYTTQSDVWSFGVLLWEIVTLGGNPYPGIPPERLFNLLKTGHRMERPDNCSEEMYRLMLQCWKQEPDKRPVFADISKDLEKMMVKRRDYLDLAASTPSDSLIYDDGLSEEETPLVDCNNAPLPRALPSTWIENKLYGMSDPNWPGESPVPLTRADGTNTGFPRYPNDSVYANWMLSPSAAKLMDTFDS
T3 sequence (P00520 27-1123 limits assumed): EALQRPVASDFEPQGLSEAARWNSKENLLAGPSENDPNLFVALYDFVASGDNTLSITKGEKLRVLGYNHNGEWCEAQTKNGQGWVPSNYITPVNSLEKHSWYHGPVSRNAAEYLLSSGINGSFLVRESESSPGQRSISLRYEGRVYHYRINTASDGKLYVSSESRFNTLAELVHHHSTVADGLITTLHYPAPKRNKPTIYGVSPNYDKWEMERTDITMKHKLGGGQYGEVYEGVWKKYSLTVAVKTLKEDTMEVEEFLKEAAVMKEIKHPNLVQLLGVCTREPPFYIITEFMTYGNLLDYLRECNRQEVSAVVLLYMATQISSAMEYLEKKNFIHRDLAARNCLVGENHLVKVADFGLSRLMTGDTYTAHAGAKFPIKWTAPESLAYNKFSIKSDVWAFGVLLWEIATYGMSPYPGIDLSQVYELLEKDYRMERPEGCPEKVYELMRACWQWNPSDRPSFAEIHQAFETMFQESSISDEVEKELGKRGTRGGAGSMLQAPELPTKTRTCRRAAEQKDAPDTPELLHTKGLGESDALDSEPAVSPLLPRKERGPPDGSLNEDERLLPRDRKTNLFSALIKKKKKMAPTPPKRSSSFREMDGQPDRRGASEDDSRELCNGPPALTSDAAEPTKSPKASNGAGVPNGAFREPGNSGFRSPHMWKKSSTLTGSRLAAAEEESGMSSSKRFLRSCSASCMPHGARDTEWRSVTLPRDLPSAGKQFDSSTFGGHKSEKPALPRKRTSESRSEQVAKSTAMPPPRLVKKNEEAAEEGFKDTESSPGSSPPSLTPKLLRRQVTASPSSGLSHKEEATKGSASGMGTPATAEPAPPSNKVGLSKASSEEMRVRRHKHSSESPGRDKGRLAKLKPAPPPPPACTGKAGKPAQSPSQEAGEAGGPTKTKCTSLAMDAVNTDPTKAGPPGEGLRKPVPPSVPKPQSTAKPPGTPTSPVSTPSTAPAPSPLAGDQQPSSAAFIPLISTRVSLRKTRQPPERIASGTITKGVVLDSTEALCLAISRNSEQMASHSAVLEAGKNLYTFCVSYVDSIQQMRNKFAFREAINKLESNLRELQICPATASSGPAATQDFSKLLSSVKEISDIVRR
T2 sequence (P41743 whole entry): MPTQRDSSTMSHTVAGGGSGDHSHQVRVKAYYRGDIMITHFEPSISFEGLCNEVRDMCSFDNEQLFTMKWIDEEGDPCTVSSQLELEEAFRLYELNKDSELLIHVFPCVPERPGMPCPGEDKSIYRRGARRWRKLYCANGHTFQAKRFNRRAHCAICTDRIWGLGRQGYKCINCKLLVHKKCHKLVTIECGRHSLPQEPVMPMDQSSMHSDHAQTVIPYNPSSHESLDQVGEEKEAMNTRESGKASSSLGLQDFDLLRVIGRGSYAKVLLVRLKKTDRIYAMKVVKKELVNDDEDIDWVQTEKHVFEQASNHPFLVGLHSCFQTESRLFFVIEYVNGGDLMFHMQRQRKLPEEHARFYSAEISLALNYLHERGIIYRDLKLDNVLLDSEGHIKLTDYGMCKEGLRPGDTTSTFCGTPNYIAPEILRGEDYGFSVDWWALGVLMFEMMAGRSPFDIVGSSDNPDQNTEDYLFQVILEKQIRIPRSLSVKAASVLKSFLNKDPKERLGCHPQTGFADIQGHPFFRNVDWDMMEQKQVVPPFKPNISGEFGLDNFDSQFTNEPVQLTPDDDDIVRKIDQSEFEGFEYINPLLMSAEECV
T4 sequence (Q09013 whole entry): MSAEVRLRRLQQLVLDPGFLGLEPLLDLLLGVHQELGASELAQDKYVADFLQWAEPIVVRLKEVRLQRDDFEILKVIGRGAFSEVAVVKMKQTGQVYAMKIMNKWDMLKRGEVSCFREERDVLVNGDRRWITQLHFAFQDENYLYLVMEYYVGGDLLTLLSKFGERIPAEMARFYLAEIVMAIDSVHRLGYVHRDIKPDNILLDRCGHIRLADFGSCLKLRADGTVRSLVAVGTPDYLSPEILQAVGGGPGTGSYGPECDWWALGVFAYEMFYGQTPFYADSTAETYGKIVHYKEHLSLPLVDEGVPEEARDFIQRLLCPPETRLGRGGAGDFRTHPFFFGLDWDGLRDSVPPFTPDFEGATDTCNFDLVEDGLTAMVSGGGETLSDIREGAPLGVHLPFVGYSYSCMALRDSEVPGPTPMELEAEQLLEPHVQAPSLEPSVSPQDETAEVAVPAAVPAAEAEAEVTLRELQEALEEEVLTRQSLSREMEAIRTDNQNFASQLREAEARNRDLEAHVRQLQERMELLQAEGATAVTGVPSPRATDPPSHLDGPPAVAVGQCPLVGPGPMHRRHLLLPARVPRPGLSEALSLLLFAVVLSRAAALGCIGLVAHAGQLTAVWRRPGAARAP

Compound	IL-1β production with diverse TLR ligands (BV-2 cells)	activity at 20 µM (MARK1) [%]	activity at 20 µM (PKCι) [%]	activity at 20 µM (Abl(m)) [%]	activity at 20 µM (DMPK) [%]	activity at 20 µM (CDK9/cyclin T1) [%]	activity at 20 µM (PhKγ2) [%]	activity at 20 µM (Ret (V804L)) [%]	activity at 20 µM (PKCδ) [%]	activity at 20 µM (EGFR) [%]	activity at 20 µM (PI3K-C2α) [%]	reference memory deficit, RAWM (reference memory)	activity at 20 µM (Arg) [%]	activity at 20 µM (EGFR(L858R)) [%]	activity at 20 µM (VRK2) [%]	visible platform test, speed and time to the platform [1]	cued learning [2]	contextual fear memory deficit [2]	activity at 20 µM (Flt3) [%]	activity at 20 µM (NEK7) [%]	further results
CN(C)c1cc(-c2ccncc2)c(-c2cccc3ccccc23)nn1 [MW181, N,N-dimethyl-6-(naphthalen-1-yl)-5-(pyridin-4-yl)pyridazin-3-amine]	suppressed IL-1β production	102	82	88	116	104	93	102	92	103	99	ameliorated the reference memory deficit	84	78	86	No difference was detected between groups	No difference was detected between groups	ameliorated the contextual fear memory deficit	93	102	activity at 20 µM (TAO1): 98%; activity at 20 µM (DDR2; at 20,000 nM inhibitor, kinase activity remaining, read-out: % Activity): 86%; activity at 20 µM (CDK3/cyclinE): 98%; activity at 20 µM (Syk): 105%; IC50 (NLK): 206 nM; activity at 20 µM (MELK): 91%
CN(C)c1cc(-c2ccncc2)c(-c2ccc3ccccc3c2)nn1 [MW108, N, N-dimethyl-6-(naphthalen-2-yl)-5-(pyridin-4-yl)pyridazin-3-amine]	suppressed IL-1β production	113	92	89	108	95	98	102	101	79	29	ameliorated the reference memory deficit	95	48	83	No difference was detected between groups	No difference was detected between groups	ameliorated the contextual fear memory deficit	108	108	IC50 (PI3K-C2α): > 30000 nM; activity at 20 µM (TAO1): 92%; IC50 (DDR2): 2860 nM; activity at 20 µM (DDR2): 11%; activity at 20 µM (CDK3/cyclinE): 91%; activity at 20 µM (Syk): 88%; IC50 (NLK): 1210 nM; activity at 20 µM (NLK): 20%; activity at 20 µM (MELK): 90%
